Like-named read-outs stand apart in the source and are kept apart here.
Key:
E. coli ATCC 25922 = test: Antimicrobial susceptibility assay (broth microdilution MIC); type: cell-based; details: Escherichia coli, ATCC25922; E. coli ATCC 25922; Mueller Hinton broth, 18 h at 37°C; growth inhibited by ≥90%; read-out: MIC
Description: (§1) The bacterial strains S. aureus ATCC 29213, S. aureus ATCC 29247, S. aureus ATCC BAA-41, E. faecium ATCC 49624, E. faecium ATCC 700221, E. faecalis ATCC 29212, S. epidermidis ATCC 12228, E. coli ATCC 25922, and K. pneumoniae ATCC BAA-1144 used in the antimicrobial susceptibility assays were purchased from American Type Culture Collection (ATCC, USA). B. subtilis strain 168 was already available in our in-house collection. E. coli JM109 WM647 was kindly provided by Dr. W. Margolin (University of Texas-Houston Medical School). FM 4–64 was purchased from Invitrogen (Eugene, Oregon). All other chemicals and reagents were purchased from Sigma-Aldrich. Stock solutions were prepared in DMSO. The final percentage of DMSO in the assays was 1% (v/v) for all experiments.
(§2) Antimicrobial susceptibility tests were conducted in 96-well microplates using the broth microdilution procedure described in the Clinical and Laboratory Standards Institute (CLSI) guidelines. Cation-adjusted Mueller Hinton broth for S. aureus strain ATCC 29213, methicillin-resistant S. aureus strain ATCC BAA-41 and ampicillin-resistant S. aureus strain ATCC 29247, or brain heart infusion broth for antibiotic-susceptible E. faecium strain ATCC 49624 and vancomycin-resistant E. faecium strain ATCC 700221, or Mueller Hinton broth for antibiotic-susceptible strains B. subtilis strain 168, E. faecalis strain ATCC 29212 and E. coli strain ATCC 25922 were used in the assays. After incubation for 18 h at 37°C, the absorbance at 600 nm (A600) was recorded using a microplate reader (Bio-Rad laboratory Ltd., UK) and the percentage of bacterial cell inhibition with respect to vehicles (1% DMSO) was calculated. The MIC was defined as the lowest compound concentration at which the growth of bacteria was inhibited by ≥90%. Three independent assays were performed for each test.

[1] = tested on: K. pneumoniae ATCC BAA-1144; test: as above; type: cell-based; details: Klebsiella pneumoniae, ATCCBAA1144; K. pneumoniae ATCC BAA-1144 (Gram-negative, expressing AmpC β-lactamase); 18 h at 37°C; growth inhibited by ≥90%; read-out: MIC
Description: as §1, §2

S. aureus ATCC 29247 = test: as above; type: cell-based; details: Staphylococcus aureus, ATCC29247; S. aureus ATCC 29247 (ampicillin-resistant); 18 h at 37°C; growth inhibited by ≥90%; read-out: MIC
Description: as §1, §2

S. aureus ATCC BAA-41 = test: as above; type: cell-based; details: Staphylococcus aureus, ATCCBAA41; S. aureus ATCC BAA-41 (methicillin-resistant); 18 h at 37°C; growth inhibited by ≥90%; read-out: MIC
Description: as §1, §2

[2] = tested on: S. epidermidis ATCC 12228; test: as above; type: cell-based; details: Staphylococcus epidermidis, ATCC12228; S. epidermidis ATCC 12228; 18 h at 37°C; growth inhibited by ≥90%; read-out: MIC
Description: as §1, §2

S. aureus FtsZ = target: T1, S. aureus FtsZ (Staphylococcus aureus, UniProt P0A031); test: GTPase activity assay; type: biochemical; details: for GTPase activity of S. aureus FtsZ: 0.44 in its absence
T1 construct: made in house; host or cells: E. coli BL21(DE3)
T1 sequence (P0A031 1-390): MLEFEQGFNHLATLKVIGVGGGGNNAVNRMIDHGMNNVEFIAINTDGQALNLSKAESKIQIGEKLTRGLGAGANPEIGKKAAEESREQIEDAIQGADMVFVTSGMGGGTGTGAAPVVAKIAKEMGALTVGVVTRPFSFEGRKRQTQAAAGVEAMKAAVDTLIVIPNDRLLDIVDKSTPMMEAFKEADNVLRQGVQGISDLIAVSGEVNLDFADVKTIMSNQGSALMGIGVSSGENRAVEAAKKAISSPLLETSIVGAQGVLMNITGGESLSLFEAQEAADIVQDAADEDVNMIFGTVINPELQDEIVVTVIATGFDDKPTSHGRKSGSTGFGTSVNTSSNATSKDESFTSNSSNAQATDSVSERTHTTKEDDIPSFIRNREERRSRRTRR
Protocol: E. coli BL21(DE3) cells were transformed with the pRSET-A-S vector carrying S. aureus FtsZ with a 6-histidine tag attached at its N-terminus under the control of a T7 promoter. […] When the OD600 reached 0.8, protein expression was induced with 0.4 mM isopropyl-β-D-thiogalactopyranoside (IPTG) for 4 h. Cells were harvested by centrifugation at 9000 rpm for 20 min at 4°C. The cell pellet was resuspended in 20 mL of solubilization buffer (50 mM Tris-HCl, 150 mM NaCl, 1 mM PMSF and 1 mM EDTA, pH 7.4) and then lysed with 1 mg/mL of lysozyme. The mixture was incubated for 1 h on ice. The cells were disrupted by sonication and the crude lysate obtained was centrifuged at 13,000 rpm for 1 h at 4°C. The supernatant containing 6-histidine tagged S. aureus FtsZ was collected and loaded onto a nickel charged HiTrap chelating column pre-equilibrated with starting buffer (20 mM sodium phosphate buffer, 0.5 M NaCl, pH 7.4). The column was then washed with 8 column volumes of the starting buffer to remove the unbound proteins, and the histidine-tagged enzyme was eluted by a linear gradient of 0−0.2 M imidazole. Fractions containing S. aureus FtsZ were pooled, buffer-exchanged with 20 mM NH4HCO3 (pH 8.0) at 4°C, lyophilized, and stored at −20°C. A stock solution of S. aureus FtsZ for the subsequent bioassay was prepared from the lyophilized powder.
The GTPase activity of recombinant S. aureus FtsZ was measured in 96-well microplates using a CytoPhos phosphate assay Biochem Kit (Cytoskeleton, USA) according to an optimized protocol and the manufacturer’s instructions. S. aureus FtsZ (3.5 µM) was preincubated with vehicle (1% DMSO) or different concentrations of each test compound in 50 mM 4-morpholinepropanesulfonic acid buffer (MOPS, pH 6.5) for 10 min at 25°C. Then 5 mM of MgCl2 and 200 mM of KCl were added. Reactions were started with the addition of 500 µM GTP and incubated at 37°C. After 30 min, the reactions were quenched by adding 100 µL of Cytophos reagent for 10 min. Inorganic phosphate was quantified by measuring the absorbance at 650 nm with a microplate reader (Bio-Rad laboratory Ltd., UK). The relative IC50 values were determined by nonlinear regression using a sigmoidal concentration-response curve in the Origin software v6. For the rate of GTPase activity of S. aureus FtsZ, different concentrations of fresh prepared FtsZ (3, 6, 9, 12, 15 µM) was preincubated with vehicle (1% DMSO) or 25 µM, 50 µM compound 2, following the same condition. The data were plotted via Origin software v6. Three independent assays were performed for all the tests.

[3] = FtsZ 3.5 µM, 500 µM GTP, 30 min at 37°C, MOPS pH 6.5, read-out: IC50±SEM, S. aureus FtsZ GTPase activity (relative IC50)

| SMILES | MIC (E. coli ATCC 25922) [µg/mL] | MIC [1] [µg/mL] | MIC (S. aureus ATCC 29247) [µg/mL] | MIC (S. aureus ATCC BAA-41) [µg/mL] | MIC [2] [µg/mL] | IC50 (S. aureus FtsZ; [3]) [µM] | GTPase activity of S. aureus FtsZ (S. aureus FtsZ; in the presence of 25 µM compound) [GTP/FtsZ/min] | GTPase activity of S. aureus FtsZ (S. aureus FtsZ; in the presence of 50 µM compound) [GTP/FtsZ/min] | IC50 (S. aureus FtsZ) [µM] |
| --- | --- | --- | --- | --- | --- | --- | --- | --- | --- |
| COc1ccc2cc3[n+](cc2c1OCCCOc1ccc([N+](=O)[O-])cc1)CCc1cc2c(cc1-3)OCO2 [Compound 5] | 32 | 64 | 2 | 2 | 2 | 43.4 ± 5.2 | – | – | – |
| COc1ccc2cc3[n+](cc2c1OCCCOc1ccccc1)CCc1cc2c(cc1-3)OCO2 [Compound 1] | 96 | 128 | 4 | 4 | 4 | 56.8 ± 10.4 | – | – | – |
| COc1ccc2cc3[n+](cc2c1OCCCCOc1ccccc1)CCc1cc2c(cc1-3)OCO2 [Compound 6] | 96 | 128 | 4 | 4 | 4 | 63.5 ± 4.7 | – | – | – |
| COc1ccc2cc3[n+](cc2c1OCCCOc1ccc(Cl)cc1)CCc1cc2c(cc1-3)OCO2 [Compound 2] | 32 | 64 | 2 | 2 | 2 | 37.8 ± 3.8 | 0.24 | 0.1 | – |
| COc1ccc(OCCCOc2c(OC)ccc3cc4[n+](cc23)CCc2cc3c(cc2-4)OCO3)cc1 [Compound 3] | 128 | 128 | 8 | 8 | 4 | 47.3 ± 4.6 | – | – | – |
| COc1ccc2cc3[n+](cc2c1OCCCOc1ccccc1C)CCc1cc2c(cc1-3)OCO2 [Compound 4] | 96 | 64 | 4 | 4 | 4 | 63.7 ± 4.8 | – | – | – |
| COc1ccc2cc3[n+](cc2c1OC)CCc1cc2c(cc1-3)OCO2 [Berberine, Berberine chloride] | > 500 | > 500 | 128 | 196 | 128 | – | – | – | 272 ± 46.6 |

From PMC4019636, “Rational Design of Berberine-Based FtsZ Inhibitors with Broad-Spectrum Antibacterial Activity” (PLoS ONE, 2014)
